Source: patent publication US20050239656A1, “Pyridine compounds or salts thereof and herbicides containing the same” (priority 2002, published 2005)

Legend:
[1] = test system: redroot pigweed; assay: Test Example 1: foliage treatment, upland pot test; type: in vivo, Amaranthus retroflexus L.; conditions: active ingredient 500 g/ha, observed 18th to 23rd day, 0 = non-treated, 100 = complete kill
[2] = test system: rice; assay: Test Example 2: soil surface treatment, upland pot test; type: in vivo, Oryza sativa L.; conditions: observed 20th to 28th day
How it was run: (§1)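 Upland soil in pots of 1/170,000 ha is sown; on day 1 after sowing the formulated compound (wettable powder or emulsifiable concentrate, predetermined a.i. amount, water volume 1,500 L/ha) is applied to the soil surface with a small sprayer. Percent control is judged by eye 20–28 days later.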

[3] = test system: wheat; assay: as above; type: in vivo, Triticum spp.; conditions: observed 20th to 28th day
How it was run: as §1

[4] = test system: green foxtail; assay: as above; type: in vivo, Setaria viridis L.; conditions: observed 20th to 28th day
How it was run: as §1

[5] = test system: velvetleaf; assay: as above; type: in vivo, Abutilon theophrasti MEDIC.; conditions: observed 20th to 28th day
How it was run: as §1

[6] = test system: rice; assay: Test Example 1: foliage treatment, upland pot test; type: in vivo, Oryza sativa L.; conditions: crop, active ingredient 500 g/ha, observed 18th to 23rd day, 0 = non-treated, 100 = complete kill
How it was run: (§2)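 Pots of upland field soil were sown and sprayed post-emergence at soybean 0.1–0.4, wheat 1.3–2.4, rice 1.2–2.6 and barnyardgrass 1.3–2.8 leaf stages. Formulations were diluted in water at 500 L/ha with 0.1% (v/v) spreader. Growth control (0 = untreated, 100 = complete kill) was judged by eye 18–23 days later.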

[7] = test system: redroot pigweed; assay: Test Example 2: soil surface treatment, upland pot test; type: in vivo, Amaranthus retroflexus L.; conditions: observed 20th to 28th day
How it was run: as §1

[8] = test system: barnyardgrass; assay: Test Example 1: foliage treatment, upland pot test; type: in vivo, Echinochloa crus-galli L.; conditions: active ingredient 500 g/ha, observed 18th to 23rd day, 0 = non-treated, 100 = complete kill
How it was run: as §2

[9] = test system: rice (var. Nihonbare); assay: Test Example 3: paddy pot test, transplanted rice; type: in vivo, Oryza sativa L.; conditions: active ingredient 250 g/ha, applied 4th day after transplantation, visually observed 21st day after application, 0 = non-treated, 100 = complete kill
How it was run: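 Rice (2-leaf stage) was transplanted 3 cm deep into puddled, leveled paddy soil under 3–4 cm flooding. On day 4 after transplanting, diluted wettable powder or emulsifiable concentrate was pipetted onto the water at a predetermined active-ingredient dose. Growth control (0 = untreated, 100 = complete kill) was scored visually 21 days later.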

[10] = test system: barnyardgrass; assay: Test Example 3: paddy pot test, application under submerged conditions; type: in vivo, Echinochloa crus-galli L.; conditions: active ingredient 250 g/ha; submerged application at 0.5 leaf stage; visually observed 14 days after application; 0 = non-treated, 100 = complete kill
How it was run: (§3)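 After sowing seeds and planting wapato tubers in flooded paddy soil, an aqueous dilution of the formulated compound was added to the 3–4 cm flood water at early leaf stage. Percent growth control relative to the untreated plot was assessed visually on day 14.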

[11] = test system: japanese bulrush; assay: as above; type: in vivo, Scirpus juncoides; conditions: active ingredient 250 g/ha; submerged application at 0.5 leaf stage; visually observed 14 days after application; 0 = non-treated, 100 = complete kill
How it was run: as §3

[12] = test system: crabgrass; assay: Test Example 1: foliage treatment, upland pot test; type: in vivo, Digitaria sanguinalis L.; conditions: active ingredient 500 g/ha, observed 18th to 23rd day, 0 = non-treated, 100 = complete kill
[13] = test system: green foxtail; assay: Test Example 1: foliage treatment, upland pot test; type: in vivo, Setaria viridis L.; conditions: active ingredient 500 g/ha, observed 18th to 23rd day, 0 = non-treated, 100 = complete kill
[14] = test system: prickly sida; assay: Test Example 1: foliage treatment, upland pot test; type: in vivo, Sida spinosa L.; conditions: active ingredient 500 g/ha, observed 18th to 23rd day, 0 = non-treated, 100 = complete kill
[15] = test system: soybean; assay: Test Example 1: foliage treatment, upland pot test; type: in vivo, Glycine max Merr.; conditions: crop, active ingredient 500 g/ha, observed 18th to 23rd day, 0 = non-treated, 100 = complete kill
How it was run: as §2

[16] = test system: prickly sida; assay: Test Example 2: soil surface treatment, upland pot test; type: in vivo, Sida spinosa L.; conditions: observed 20th to 28th day
How it was run: as §1

[17] = test system: corn; assay: Test Example 1: foliage treatment, upland pot test; type: in vivo, Zea mays L.; conditions: crop, active ingredient 500 g/ha, observed 18th to 23rd day, 0 = non-treated, 100 = complete kill
How it was run: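 In this upland pot foliage test, corn plants at 2.1 to 3.2 leaf stages were sprayed by a small size sprayer. The spray was a conventionally formulated wettable powder or emulsifiable concentrate weighed to a set active ingredient amount, diluted in water at 500 L/ha, plus 0.1% (v/v) agricultural spreader. Visual assessment on days 18 to 23 gave growth controlling degree (%), where 0 equals untreated and 100 means complete kill.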

[18] = test system: velvetleaf; assay: Test Example 1: foliage treatment, upland pot test; type: in vivo, Abutilon theophrasti MEDIC.; conditions: active ingredient 500 g/ha, observed 18th to 23rd day, 0 = non-treated, 100 = complete kill
[19] = test system: corn; assay: Test Example 2: soil surface treatment, upland pot test; type: in vivo, Zea mays L.; conditions: observed 20th to 28th day
How it was run: as §1

[20] = test system: soybean; assay: as above; type: in vivo, Glycine max Merr.; conditions: observed 20th to 28th day
How it was run: as §1

[21] = test system: crabgrass; assay: as above; type: in vivo, Digitaria sanguinalis L.; conditions: observed 20th to 28th day
How it was run: as §1

[22] = test system: wheat; assay: Test Example 1: foliage treatment, upland pot test; type: in vivo, Triticum spp.; conditions: crop, active ingredient 500 g/ha, observed 18th to 23rd day, 0 = non-treated, 100 = complete kill
From the text: Upland field soil was put into a 1/170,000 ha pot, and seed of various plants were sown. Then, when the plants reached predetermined leaf stages ((1) barnyardgrass: 1.3 to 2.8 leaf stages, (2) crabgrass: 1.0 to 2.8 leaf stages, (3) green foxtail: 1.3 to 2.6 leaf stages, (4) redroot pigweed: 0.1 to 1.2 leaf stages, (5) prickly sida: 0.1 to 1.2 leaf stages, (6) velvetleaf: 0.1 to 1.2 leaf stages, (7) tall morningglory: 0.1 to 1.5 leaf stages, (8) rice: 1.2 to 2.6 leaf stages, (9) wheat: 1.3 to 2.4 leaf stages, (10) corn, 2.1 to 3.2 leaf stages, (11) soybean: 0.1 to 0.4 leaf stage), a wettable powder or emulsifiable concentrate having the compound of the present invention formulated in accordance with a usual formulation method, was weighed so that the active ingredient would be a predetermined amount, and diluted with water in an amount of 500 L/ha. To the diluted solution, 0.1% (v/v) of agricultural spreader was added. The herbicide thus adjusted was applied by a small size sprayer for foliage treatment. On the 18th to 23rd days after the application of the herbicide, the growth of the respective plants was visually observed, and the herbicidal effects were evaluated by the growth controlling degrees (%) ranging from 0 (equivalent to the non-treated plot) to 100 (complete kill), whereby the results shown in Table 3, were obtained.

[23] = test system: barnyardgrass; assay: Test Example 2: soil surface treatment, upland pot test; type: in vivo, Echinochloa crus-galli L.; conditions: observed 20th to 28th day
How it was run: as §1

| Structure (SMILES) | Growth controlling degree (%) Redroot pigweed [1] [%] | Growth controlling degree (%) Rice ([2]; active ingredient 500 g/ha) [%] | Growth controlling degree (%) wheat ([3]; active ingredient 500 g/ha) [%] | Growth controlling degree (%) Green foxtail ([4]; active ingredient 500 g/ha) [%] | Growth controlling degree (%) Velvetleaf ([5]; active ingredient 500 g/ha) [%] | Growth controlling degree (%) Rice [6] [%] | Growth controlling degree (%) Redroot pigweed ([7]; active ingredient 500 g/ha) [%] | Growth controlling degree (%) Barnyardgrass [8] [%] | Growth controlling degree (%) Rice [9] [%] | Growth controlling degree (%) Barnyardgrass [10] [%] | Growth controlling degree (%) Japanese bulrush [11] [%] | Growth controlling degree (%) Crabgrass [12] [%] | Growth controlling degree (%) Green foxtail [13] [%] | Growth controlling degree (%) Prickly sida [14] [%] | Growth controlling degree (%) Soybean [15] [%] | Growth controlling degree (%) Prickly sida ([16]; active ingredient 500 g/ha) [%] | Growth controlling degree (%) Corn [17] [%] | Growth controlling degree (%) Velvetleaf [18] [%] | Growth controlling degree (%) Corn ([19]; active ingredient 500 g/ha) [%] | Growth controlling degree (%) wheat [22] [%] | also measured |
| --- | --- | --- | --- | --- | --- | --- | --- | --- | --- | --- | --- | --- | --- | --- | --- | --- | --- | --- | --- | --- | --- |
| CC(C)C(=O)N(C)C(c1cnccc1C(F)(F)F)C(C)C (stereo not drawn) [I-198] | 70 | 98 | 98 | 100 | 70 | 80 | 80 | 70 | 60 | 100 | 100 | 80 | 60 | 70 | 60 | 90 | 70 | 40 | 70 | 70 | Growth controlling degree (%) Soyabean ([20]; active ingredient 500 g/ha): 90%; Growth controlling degree (%) Crabgrass ([21]; active ingredient 500 g/ha): 100%; Growth controlling degree (%) Barnyardgrass ([23]; active ingredient 500 g/ha): 100% |
| CC(C)C(c1cnccc1C(F)(F)F)N(C)S(=O)(=O)c1ccc(F)cc1F (racemic) [I-127] | 20 | 20 | 30 | 100 | 40 | 30 | 60 | 70 | 0 | 100 | 70 | 95 | 50 | 70 | 60 | 50 | 40 | 60 | 10 | 0 | Growth controlling degree (%) Soyabean ([20]; active ingredient 500 g/ha): 10%; Growth controlling degree (%) Crabgrass ([21]; active ingredient 500 g/ha): 90%; Growth controlling degree (%) Barnyardgrass ([23]; active ingredient 500 g/ha): 100% |
| CC(C)CC(=O)N(C)C(c1cnccc1C(F)(F)F)C(C)C (stereo not drawn) [I-193] | 80 |  |  |  |  | 80 |  | 95 | 30 | 100 | 95 | 90 | 80 | 90 | 80 |  | 80 | 60 |  | 80 | Growth controlling degree (%) Rice ([2]; active ingredient 250 g/ha): 80%; Growth controlling degree (%) wheat ([3]; active ingredient 250 g/ha): 60%; Growth controlling degree (%) Green foxtail ([4]; active ingredient 250 g/ha): 100%; Growth controlling degree (%) Velvetleaf ([5]; active ingredient 250 g/ha): 10%; Growth controlling degree (%) Redroot pigweed ([7]; active ingredient 250 g/ha): 10%; Growth controlling degree (%) Prickly sida ([16]; active ingredient 250 g/ha): 80%; Growth controlling degree (%) Corn ([19]; active ingredient 250 g/ha): 70%; Growth controlling degree (%) Soyabean ([20]; active ingredient 250 g/ha): 10%; Growth controlling degree (%) Crabgrass ([21]; active ingredient 250 g/ha): 100%; Growth controlling degree (%) Barnyardgrass ([23]; active ingredient 250 g/ha): 100% |
| CC(Oc1ccc(F)cc1)C(=O)N(C)C(c1cnccc1C(F)(F)F)C(C)C (mixture of isomers) [I-133] | 70 | 70 | 40 | 100 | 50 | 40 | 50 | 70 | 10 | 100 | 95 | 70 | 70 | 80 | 80 | 80 | 80 | 70 | 50 | 40 | Growth controlling degree (%) Soyabean ([20]; active ingredient 500 g/ha): 30%; Growth controlling degree (%) Crabgrass ([21]; active ingredient 500 g/ha): 98%; Growth controlling degree (%) Barnyardgrass ([23]; active ingredient 500 g/ha): 100% |
| CCCCC(=O)N(C)C(c1cnccc1C(F)(F)F)C(C)C (stereo not drawn) [I-199] | 60 |  |  |  |  | 50 |  | 70 | 40 | 100 | 98 | 80 | 70 | 70 | 60 |  | 60 | 60 |  | 50 | Growth controlling degree (%) Rice ([2]; active ingredient 250 g/ha): 90%; Growth controlling degree (%) wheat ([3]; active ingredient 250 g/ha): 50%; Growth controlling degree (%) Green foxtail ([4]; active ingredient 250 g/ha): 100%; Growth controlling degree (%) Velvetleaf ([5]; active ingredient 250 g/ha): 50%; Growth controlling degree (%) Redroot pigweed ([7]; active ingredient 250 g/ha): 70%; Growth controlling degree (%) Prickly sida ([16]; active ingredient 250 g/ha): 80%; Growth controlling degree (%) Soyabean ([20]; active ingredient 250 g/ha): 20%; Growth controlling degree (%) Crabgrass ([21]; active ingredient 250 g/ha): 100%; Growth controlling degree (%) Barnyardgrass ([23]; active ingredient 250 g/ha): 100% |
